How the values were obtained:
Type in all cases: physicochemical
[1] = Polymorphism screening of Sample 1 (solubility observations, maturation, cooling, XRPD); design: key to Obs. at r.t. 10 vol. / Obs. at r.t. 20 vol. / Obs. at r.t. 30 vol. / Obs. at r.t. 40 vol. / Obs. at r.t. 50 vol. / Maturation 50° C./r.t. / Cooling at 5° C.: ✓ = Soluble; X = Insoluble,; conditions: for Maturation 50° C./r.t.: heat-cool cycles 24 h; for Cooling at 5° C.: held at 5° C. for 48 h
Experimental: Polymorphism studies on marizomib were carried out in different solvents and conditions to understand the polymorphic behavior of the free form. Marizomib (Sample 1, 30 mg) was dissolved or suspended in the given solvent at room temperature. Solvent was added until the material dissolved or up to a maximum of 50 volumes. The suspensions were matured between 50° C. and room temperature heat-cool cycles (8 h per cycle) for 24 h. The solutions were cooled to and held at 5° C. for 48 h. If no solid was obtained then the solutions were allowed to evaporate slowly at room temperature. All the recovered solids were analyzed by XRPD.

[2] = Hydrolysis of marizomib / chemical purity by HPLC after solvent exposure; conditions: starting material 98.2%
Experimental: Purity analysis was performed on an Agilent HP1100 series system equipped with a diode array detector and using ChemStation software vB.04.03 using the method set forth in Table-5.
30 mg of Sample 1 was suspended in the given solvent shown in Table 6 (1 ml) at room temperature. The samples were matured between 50° C. and room temperature heat-cool cycles (8 h per cycle) for 96 h. The solids were filtered, air dried and analyzed by XRPD.

[3] = Variable temperature XRPD
Experimental: Samples run under non-ambient conditions were mounted on a silicon wafer with heat-conducting compound. The sample was then heated to the appropriate temperature at 20° C./min and subsequently held isothermally for 1 minute before data collection was initiated.

[4] = Thermogravimetric analysis (TGA); conditions: heated at 10° C./min under nitrogen
Experimental: TGA data were collected on a TA Instruments Q500 TGA, equipped with a 16-position auto-sampler. The instrument was temperature calibrated using certified Alumel™ and Nickel. Typically 5-10 mg of each sample was loaded onto a pre-tared aluminum DSC pan and heated at 10° C./min from ambient temperature to 350° C. A nitrogen purge at 60 ml/min was maintained over the sample.
TG analyses were performed using a TA Instruments Q5000 IR thermogravimetric analyzer. Temperature calibration was performed using nickel and Alumel™. Each sample was placed in an aluminum pan. The sample was hermetically sealed, the lid pierced, then inserted into the TG furnace. The furnace was heated under nitrogen.

C[C@@]12OC(=O)[C@]1([C@@H](O)[C@@H]1C=CCCC1)NC(=O)[C@@H]2CCCl [Sample 1, marizomib]
remained as Form I: Morphic form on heating (variable temperature XRPD) ([3]; 25° C. to 160° C.)
97.4%: Chemical purity (HPLC) of solid isolated from polymorphism screen ([2]; isolated from EtOH experiment)
about 160 °C: Discoloration (white to yellow) temperature; melting and/or degradation after about five minutes hold ([3]; during variable temperature XRPD)
Form I was the only form obtained: Morphic form obtained from polymorphism screen (XRPD) ([1]; 20 solvents, maturation, cooling, evaporation)
✓: Maturation 50° C./r.t. ([1]; Acetone) | Cooling at 5° C. ([1]; Acetone) | Obs. at r.t. 20 vol. ([1]; Chloroform) | Cooling at 5° C. ([1]; Chloroform) | Obs. at r.t. 20 vol. ([1]; DMA) | Cooling at 5° C. ([1]; DMA) | Obs. at r.t. 20 vol. ([1]; DMF) | Cooling at 5° C. ([1]; DMF) | Maturation 50° C./r.t. ([1]; Dimethyl sulfoxide) | Cooling at 5° C. ([1]; Dimethyl sulfoxide) | Maturation 50° C./r.t. ([1]; Ethyl acetate) | Cooling at 5° C. ([1]; Ethyl acetate) | Maturation 50° C./r.t. ([1]; MEK) | Cooling at 5° C. ([1]; MEK) | Obs. at r.t. 20 vol. ([1]; Tetrahydrofuran) | Cooling at 5° C. ([1]; Tetrahydrofuran)
X: Obs. at r.t. 10 vol. ([1]; 2-Propanol) | Obs. at r.t. 20 vol. ([1]; 2-Propanol) | Obs. at r.t. 30 vol. ([1]; 2-Propanol) | Obs. at r.t. 40 vol. ([1]; 2-Propanol) | Obs. at r.t. 50 vol. ([1]; 2-Propanol) | Maturation 50° C./r.t. ([1]; 2-Propanol) | Obs. at r.t. 10 vol. ([1]; Acetone) | Obs. at r.t. 20 vol. ([1]; Acetone) | Obs. at r.t. 30 vol. ([1]; Acetone) | Obs. at r.t. 40 vol. ([1]; Acetone) | Obs. at r.t. 50 vol. ([1]; Acetone) | Obs. at r.t. 10 vol. ([1]; Acetonitrile) | Obs. at r.t. 20 vol. ([1]; Acetonitrile) | Obs. at r.t. 30 vol. ([1]; Acetonitrile) | Obs. at r.t. 40 vol. ([1]; Acetonitrile) | Obs. at r.t. 50 vol. ([1]; Acetonitrile) | Maturation 50° C./r.t. ([1]; Acetonitrile) | Obs. at r.t. 10 vol. ([1]; Anisole) | Obs. at r.t. 20 vol. ([1]; Anisole) | Obs. at r.t. 30 vol. ([1]; Anisole) | Obs. at r.t. 40 vol. ([1]; Anisole) | Obs. at r.t. 50 vol. ([1]; Anisole) | Maturation 50° C./r.t. ([1]; Anisole) | Obs. at r.t. 10 vol. ([1]; Chloroform) | Obs. at r.t. 10 vol. ([1]; Cumene) | Obs. at r.t. 20 vol. ([1]; Cumene) | Obs. at r.t. 30 vol. ([1]; Cumene) | Obs. at r.t. 40 vol. ([1]; Cumene) | Obs. at r.t. 50 vol. ([1]; Cumene) | Maturation 50° C./r.t. ([1]; Cumene) | Obs. at r.t. 10 vol. ([1]; DMA) | Obs. at r.t. 10 vol. ([1]; DMF) | Obs. at r.t. 10 vol. ([1]; Dichloromethane) | Obs. at r.t. 20 vol. ([1]; Dichloromethane) | Obs. at r.t. 30 vol. ([1]; Dichloromethane) | Obs. at r.t. 40 vol. ([1]; Dichloromethane) | Obs. at r.t. 50 vol. ([1]; Dichloromethane) | Maturation 50° C./r.t. ([1]; Dichloromethane) | Obs. at r.t. 10 vol. ([1]; Dimethyl sulfoxide) | Obs. at r.t. 20 vol. ([1]; Dimethyl sulfoxide) | Obs. at r.t. 30 vol. ([1]; Dimethyl sulfoxide) | Obs. at r.t. 40 vol. ([1]; Dimethyl sulfoxide) | Obs. at r.t. 50 vol. ([1]; Dimethyl sulfoxide) | Obs. at r.t. 10 vol. ([1]; Ethanol) | Obs. at r.t. 20 vol. ([1]; Ethanol) | Obs. at r.t. 30 vol. ([1]; Ethanol) | Obs. at r.t. 40 vol. ([1]; Ethanol) | Obs. at r.t. 50 vol. ([1]; Ethanol) | Maturation 50° C./r.t. ([1]; Ethanol) | Obs. at r.t. 10 vol. ([1]; Ethyl acetate) | Obs. at r.t. 20 vol. ([1]; Ethyl acetate) | Obs. at r.t. 30 vol. ([1]; Ethyl acetate) | Obs. at r.t. 40 vol. ([1]; Ethyl acetate) | Obs. at r.t. 50 vol. ([1]; Ethyl acetate) | Obs. at r.t. 10 vol. ([1]; Isopropyl acetate) | Obs. at r.t. 20 vol. ([1]; Isopropyl acetate) | Obs. at r.t. 30 vol. ([1]; Isopropyl acetate) | Obs. at r.t. 40 vol. ([1]; Isopropyl acetate) | Obs. at r.t. 50 vol. ([1]; Isopropyl acetate) | Maturation 50° C./r.t. ([1]; Isopropyl acetate) | Obs. at r.t. 10 vol. ([1]; MEK) | Obs. at r.t. 20 vol. ([1]; MEK) | Obs. at r.t. 30 vol. ([1]; MEK) | Obs. at r.t. 40 vol. ([1]; MEK) | Obs. at r.t. 50 vol. ([1]; MEK) | Obs. at r.t. 10 vol. ([1]; MIBK) | Obs. at r.t. 20 vol. ([1]; MIBK) | Obs. at r.t. 30 vol. ([1]; MIBK) | Obs. at r.t. 40 vol. ([1]; MIBK) | Obs. at r.t. 50 vol. ([1]; MIBK) | Maturation 50° C./r.t. ([1]; MIBK) | Obs. at r.t. 10 vol. ([1]; Nitromethane) | Obs. at r.t. 20 vol. ([1]; Nitromethane) | Obs. at r.t. 30 vol. ([1]; Nitromethane) | Obs. at r.t. 40 vol. ([1]; Nitromethane) | Obs. at r.t. 50 vol. ([1]; Nitromethane) | Maturation 50° C./r.t. ([1]; Nitromethane) | Obs. at r.t. 10 vol. ([1]; Tetrahydrofuran) | Obs. at r.t. 10 vol. ([1]; Toluene) | Obs. at r.t. 20 vol. ([1]; Toluene) | Obs. at r.t. 30 vol. ([1]; Toluene) | Obs. at r.t. 40 vol. ([1]; Toluene) | Obs. at r.t. 50 vol. ([1]; Toluene) | Maturation 50° C./r.t. ([1]; Toluene) | Obs. at r.t. 10 vol. ([1]; n-Heptane) | Obs. at r.t. 20 vol. ([1]; n-Heptane) | Obs. at r.t. 30 vol. ([1]; n-Heptane) | Obs. at r.t. 40 vol. ([1]; n-Heptane) | Obs. at r.t. 50 vol. ([1]; n-Heptane) | Maturation 50° C./r.t. ([1]; n-Heptane) | Obs. at r.t. 10 vol. ([1]; tert-Butylmethyl ether) | Obs. at r.t. 20 vol. ([1]; tert-Butylmethyl ether) | Obs. at r.t. 30 vol. ([1]; tert-Butylmethyl ether) | Obs. at r.t. 40 vol. ([1]; tert-Butylmethyl ether) | Obs. at r.t. 50 vol. ([1]; tert-Butylmethyl ether) | Maturation 50° C./r.t. ([1]; tert-Butylmethyl ether)
96.8%: Chemical purity (HPLC) of solid isolated from polymorphism screen ([2]; isolated from EtOAc experiment)

C[C@@]12OC(=O)[C@]1([C@@H](O)[C@@H]1C=CCCC1)NC(=O)[C@@H]2CCCl [Sample 3, marizomib]
about 175 °C: TGA: no weight loss observed until (weight loss can be due to sample degradation) [4]
